Measured values: US8748575B2, “Therapeutic peptides” (Combimab, Inc., priority 2010, dated 2014)
Residues, ends and D or L forms follow the SMILES beside them.

How the values were obtained:
[1] = molecular target: T1, GC-C (Mus musculus, UniProt Q3UWA6); assay: Intestinal membrane 125I-STa competitive radioligand binding assay; design: key to I-125 binding assay: 1+ (lowest activity/potency); ++: Results are graded from 1+ (lowest activity/potency) to 5+ (highest activity/potency); +++: Results are graded from 1+ (lowest activity/potency) to 5+ (highest activity/potency); ++++: Results are graded from 1+ (lowest activity/potency) to 5+ (highest activity/potency); +++++: 5+ (highest activity/potency); conditions: graded activity/potency, mouse intestinal membranes
T1 construct: freshly prepared mouse intestine membranes; from tissue; host or cells: mouse intestine (membrane preparation)
T1 sequence (Q3UWA6 20-1072): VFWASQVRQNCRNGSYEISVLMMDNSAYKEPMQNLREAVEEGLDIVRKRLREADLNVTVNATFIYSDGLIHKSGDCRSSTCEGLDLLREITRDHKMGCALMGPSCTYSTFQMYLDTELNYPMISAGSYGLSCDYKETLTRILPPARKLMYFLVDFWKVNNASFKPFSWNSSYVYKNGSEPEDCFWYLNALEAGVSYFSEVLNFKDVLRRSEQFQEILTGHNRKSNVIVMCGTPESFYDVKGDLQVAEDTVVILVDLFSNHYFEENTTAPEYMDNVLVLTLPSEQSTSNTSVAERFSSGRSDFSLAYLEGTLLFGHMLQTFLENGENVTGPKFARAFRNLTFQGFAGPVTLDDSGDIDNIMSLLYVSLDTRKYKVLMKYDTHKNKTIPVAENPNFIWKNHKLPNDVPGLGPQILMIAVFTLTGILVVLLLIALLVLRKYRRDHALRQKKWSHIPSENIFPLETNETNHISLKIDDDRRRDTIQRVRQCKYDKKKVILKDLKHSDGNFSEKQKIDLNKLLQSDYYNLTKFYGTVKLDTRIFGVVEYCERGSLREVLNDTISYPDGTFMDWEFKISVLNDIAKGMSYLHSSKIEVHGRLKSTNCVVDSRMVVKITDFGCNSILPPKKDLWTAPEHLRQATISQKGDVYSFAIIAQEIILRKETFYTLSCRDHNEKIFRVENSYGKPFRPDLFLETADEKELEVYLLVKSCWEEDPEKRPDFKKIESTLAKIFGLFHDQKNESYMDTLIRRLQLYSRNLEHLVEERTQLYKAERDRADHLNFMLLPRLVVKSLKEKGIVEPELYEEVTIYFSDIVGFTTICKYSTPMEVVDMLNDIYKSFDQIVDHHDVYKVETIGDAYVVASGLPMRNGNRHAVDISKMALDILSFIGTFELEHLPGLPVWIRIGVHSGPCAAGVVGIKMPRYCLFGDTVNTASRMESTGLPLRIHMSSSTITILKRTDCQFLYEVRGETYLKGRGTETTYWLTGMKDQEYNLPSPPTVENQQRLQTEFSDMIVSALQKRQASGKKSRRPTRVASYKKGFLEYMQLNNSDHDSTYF
Experimental: Intestinal membrane 1-125 labeled radioligand binding assay. The intestinal membrane radioligand binding assay was used to assess whether a novel compound could displace ^125I-STa from GC-C (Crane et al., 1992). Each analog was analyzed for its ability to displace ^125I-STa from GC-C in a competitive binding assay. ^125I-ST Displaced” was determined by co-incubating STa analogs (10 μM) with 50,000 DPM of ^125I-STa (1-18) in the presence of mouse intestinal membranes. The displacement (n=3) for each analog was determined relative to a vehicle control.
Membranes were prepared from freshly harvested mouse intestines by first washing away the blood or feces with ice-cold Dulbecco's PBS. Washed organs were minced with a single-edged razor blade, followed by homogenization on ice in 50 mM Tris, pH 7.6, containing 1 mM EDTA, 1 mM PMSF, 1 mM DTT. Debris was then removed by a 15 minute centrifugation at 3,000×G and 4° C. The supernatant is then passed through successively smaller needles (18 gauge through 25 gauge) and frozen at −70° C. until used as a tissue homogenate. If intended for use as isolated membranes, the above homogenate was centrifuged (100,000×G) at 4° C. for 1 hour while fresh and the pellet was re-suspended in homogenization buffer.
The assay was performed in 96 well filter plates which were pre-incubated overnight with 200 μl of 0.3% polyethylenimine (w/v) and washed three times by aspiration with 300 μl of Wash Buffer (150 mM NaCl, 20 mM Sodium Phosphate pH=7.2, 1 mM EDTA) immediately before use. Into each well of was added 50 μl of 3× Binding buffer (150 mM Tris-HCl pH=7.6, 1.98 mM Cysteamine, 0.3% Bacitracin, 1350 mM NaCl, 3 mM EDTA), 40 μl of double-distilled water, 10 μl of either double-distilled water or cold ligand (50 uM STa (5-18) in double-distilled water), 10 μl of increasing concentrations (125 DPM/ul to 50,000 DPM/ul) of radiolabeled 125I -STa (1-18) and finally 40 μl (approximately 2 mg protein/ml) of freshly prepared mouse intestine membranes. The plates were then incubated with mixing at 37 C for two hr, washed successively with six 200 μl aliquots of Wash Buffer and aspirated to dryness. The filter bottoms of each well were punched into individual borosilicate tubes and bound radioactivity determined in a gamma counter. Protein content was determined on an aliquot of the mouse intestine membranes used in the Biorad Protein Assay.

[2] = system: T84 cells (GC-C); assay: Intact T84 cell cGMP accumulation assay; format: cell-based, Human; design: key to CGMP accumulation assay: 1+ (lowest activity/potency); ++: Results are graded from 1+ (lowest activity/potency) to 5+ (highest activity/potency); +++: Results are graded from 1+ (lowest activity/potency) to 5+ (highest activity/potency); ++++: Results are graded from 1+ (lowest activity/potency) to 5+ (highest activity/potency); +++++: 5+ (highest activity/potency); conditions: for CGMP accumulation assay: graded activity/potency, T84 cells; for activity in the cGMP accumulation assay: FIG. 22, compared to STa peptide
Experimental: The intact T84 cell assay was used to detect the accumulation of cGMP, the product of agonism, upon interaction with a compound (Visweswariah et al., 1992). Human colorectal adenocarcinoma T84 cells were grown to confluence in a 24 well plate using DMEM/F12 medium supplemented with 10% FBS. The media was aspirated from each well and the cells were washed three times with Dulbecco's PBS (1×, no Ca2+ or Mg2+). The cells were then incubated for 30 minutes at 37° C. with 1 mM […] (IBMX) in Optimem medium (no FBS), either with or without potential antagonists. After incubation under these conditions, a 10× concentrated stock of a known GC-C agonist (e.g., STa (5-18)) in PBS was added to each well and the incubation continued for an additional 15 min at 37° C.
The reaction was stopped by the addition of 200 μL of Passive Lysis Buffer (Promega) to each well. The supernatant was removed for cGMP quantitation by RIA using ^125I-labeled cGMP 54 antibody relative to an external cGMP standard curve. The cells were scraped from the surface for protein content determination using a BioRad Protein Assay.

“H2N Asn Thr Phe Tyr Cys Cys Glu Leu Cys Cys Asn Pro Ala Cys Ala Gly Cys Tyr COOH [STa(1-18)]” was tested, and the I-125 binding assay [1] was “+++” and the CGMP accumulation assay [2] was “++++”.
In the case of `C[C@@H]1NC(=O)[C@@H]2CCCN2C(=O)[C@H](CC(N)=O)NC(=O)[C@@H]2CSSC[C@H](N)C(=O)N[C@H]3CSSC[C@H](NC1=O)C(=O)N[C@@H]([C@@H](C)O)C(=O)NCC(=O)N[C@H](C(=O)N[C@@H](Cc1ccc(O)cc1)C(=O)O)CSSC[C@H](NC(=O)[C@H](Cc1ccc(O)cc1)NC(=O)[C@H](CCC(=O)O)NC3=O)C(=O)N2` [Linaclotide, H2N Cys Cys Glu Tyr Cys Cys Asn Pro Ala Cys Thr Gly Cys Tyr COOH] (HELM PEPTIDE1{C.C.E.Y.C.C.N.P.A.C.T.G.C.Y}$PEPTIDE1,PEPTIDE1,1:R3-6:R3|PEPTIDE1,PEPTIDE1,2:R3-10:R3|PEPTIDE1,PEPTIDE1,5:R3-13:R3$$$V2.0), the I-125 binding assay [1] is reported as “+++”, the “activity in the cGMP accumulation assay” value [2] is reported as “lower than the STa peptide” and the CGMP accumulation assay [2] is reported as “+++”. For the same compound, the “activity in the cGMP accumulation assay” value ([2]; second experiment) was “lower than the STa peptide”.
